Experimental data published in patent US5430058A, “Pharmaceutical compositions comprising hydroxamate derivatives for iron removal” (Yeda Research and Development Co. Ltd., priority 1993, dated 1995).
Converted amounts (≈) assume the structure as drawn. Read-outs that look alike come from different tables or passages of the source.

Tests used:
[1] = Partition between n-octanol and saline; type: physicochemical; conditions: for logP: Table 1, free ligand, read-out: Partition coefficient (converted); for rel. Pcoeff (a): Table 2, relative to L-val-n1 = 1.0
Protocol: e. Partition coefficients were obtained by overnight equilibration of the free reversed siderophores between equal volumes of n-octanol and saline. The concentrations of the ligands in each phase were determined by adding excess iron(III) and measuring the ferric complexes at 430 nm.
(§1) The values for Pcoeff of free RSF ileun2 (the same as SF1ileu) and of leun2 and their respective iron(III) complexes were similar (not shown).

[2] = amino acid side chain, Tanford/Segret's scale as given by Eisenberg 1984; cited from earlier work
[3] = Relative iron(III) binding efficiency by competition with EDTA; type: physicochemical; conditions: for Relative binding: Table 1, DFO = 100, competition with EDTA in aqueous MeOH; for rel. Fe binding (b): Table 2, relative to DFO = 1.16, 0.75 mM hydroxamate, 0.15 mM EDTA, 0.15 mM Fe3+ in aqueous methanol; for Pcoeff*Fe binding (a*b): product of relative partition coefficient and relative iron(III) binding
Protocol: c. The relative binding efficiencies of the reversed siderophores (0.75 mM reversed siderophore and 0.15 mM Fe^3+ in aqueous MeOH (MeOH-0.1N NaOAc) were incubated with EDTA (0.15 mM). After equilibration overnight, the fraction of siderophore- Fe^3+ complex present was determined at 430 nm.
as §1

[4] = tested on: trophozoites of P. falciparum, strain ItG2G1; test: Antimalarial activity (Table 1), [3H]hypoxanthine incorporation; type: cell-based; conditions: Plasmodium falciparum, 48 h
Protocol: f. Parasite cultures. The P. falciparum strains used in the experiments: ItG2G1 (Brazil, provided by Dr. L. H. Miller), D6 (W. African, provided by Dr. A. J. M. Oduola) FCR-3 (Gambian, provided by Dr. J. B. Jensen) and W2 (Indochina, provided by Dr. A. J. M. Oduola), were grown in culture flasks of human erythrocytes by a modified version of Trager and Jensen's method as described by Silfen et al. ((1988) Biochem. Pharmacol. 37: 4269-4276)).
(§2) g. Bioassay of iron carrier antimalarial activity. The antimalarial activity was assayed by adding the compounds from concentrated stock solutions (in DMSO) to microcultures (24 wells, Costar) containing infected red cells (2.5% hematocrit and 2% parasitemia). The cultures were usually synchronized (4-7 hrs. windows) by incubation in 300 mM Ala, 10 mM TRIS-Cl in conjunction with gelatin flotation and used either at the trophozoite (1-2% parasitemia) or at the ring stage (4-6% parasitemia) of the erythrocyctic cycle. After the indicated time of incubation with drug and either previous to or after washing 3 times with 100 volumes growth medium, the cells were supplemented with 6 μCi of either [^3 H]-hypoxanthine or [^3 H]-Ileu (Amersham, England) per well and parasite growth assessed after 24-48 hours by harvesting the labelled cells onto glass-fiber filters (Tamar, Inc. Jerusalem) and counting of the radioactivity.
The antimalarial activity of the different chelators was initially evaluated on cultures of trophozoites which were exposed for 24 hours to different concentrations of chelators. Following that period, [^3 H]-hypoxanthine or [^3 H]-Ileu were added and 24 hours later the parasitemia and incorporation of label into macromolecular material was determined.

[5] = Extraction of iron from aqueous FeCl3/citrate into chloroform; type: physicochemical; conditions: 0.3 mM in chloroform vs 0.3 mM FeCl3, 0.3 mM citric acid, 40 mM TRIS, pH 6.9, overnight
Protocol: d. Extractions were performed by overnight equilibration of 0.3 mM chloroform solutions of reversed siderophore with aqueous solutions of 0.3 mM FeCl3, 0.3 mM citric acid, 40 mM TRIS, pH 6.9. The amount of iron taken up into the organic phase was determined by the absorption of the iron+complex at 430 nm. No iron uptake into chloroform solutions devoid of RSF was observed by ion chromatography.

[6] = tested on: trophozoites of P. falciparum; test: Antimalarial activity (Table 2), [3H]-hypoxanthine incorporation; type: cell-based, Plasmodium falciparum; conditions: Plasmodium falciparum
Protocol: as §2, with “radioactivity. […]” for “radioactivity.”

normal red cells = test: Uptake of 59Fe-carrier complexes into normal red cells; type: cell-based, human
Protocol: (§3) k. Uptake of radioactive carrier-Fe complexes. DFO and the different SF derivatives were pre-complexed with iron by addition of concentrated stock solutions of 20 mg/ml carriers to ^59 FeCl3 (Amersham, England) in 0.5 ml of 150 mM NaCl, 10 mM Hepes at 3-5 molar excess of carrier for 1 hour at room temperature. To begin the flux, normal or parasitized red cells that had been washed 3 times in saline buffer and resuspended in the same buffer supplemented with 5% bovine serum albumin (BSA), 2.5 mM citrate, 2 mg/ml glucose were added to radioactive ^59 Fe-complexes at a final suspension of 20% hematocrit. After incubation at 37° C., 75 μl suspension was removed in duplicate aliquots for each time point, placed in plastic 15 ml test tube (Starstedt) and centrifuged 1 minute at 2,500 g. The supernatant was removed and the pellet immediately placed on ice. After all sampling was completed the pellets were washed twice in 15 ml of ice cold buffer containing 50 mM EDTA and lysed in distilled water. Radioactivity (Gamma emission, 700-1300 Kev) was counted and the cell number for each sample determined from hemoglobin absorption of the lysate at 410 nm.
Due to the fact that RSF's have markedly greater lipophilicity than DFO, they were expected to faster penetrate and therefore more effectively chelate intracellular iron after short exposure times. Penetration of RSF's into normal and infected red cells was estimated by monitoring uptake of the RSF's-^59 Fe(III) complexes into infected and uninfected cells and compared to DFO. In order to confirm actual uptake of Fe-RSF ileun2 rather than adsorption to the outer membrane, cells were thoroughly washed and lysates were subjected to 80,000g×20 min centrifugation. More than 90% of the total counts were found in the cytosol fraction (results not shown).
FIGS. 8a and 8b show uptake of Fe^59 -carrier complexes into normal and infected red cells. Uptake of ^59 -Fe-RSF (FIG. 8a) and ^59 Fe-DFO (FIG. 8b) into normal (open symbols) and infected (closed symbols) red cells (60% parasitemia, >90% trophozoites). The carriers were pre-complexed to ^59 FeCl3 at 4:1 ration in DMSO with 5 μM external FeCl3 (from methanolic stock solutions). The radioactive complexes were then added to 20% hematocrit cell suspensions and flux was measured. Specific activity was 485000 cpm/nmole and 369000 cpm/nmole for the RSF and DFO uptake experiments, respectively. Cell number was determined from hemoglobin absorption of lysate at 410 nm.

infected red cells = test: Uptake of 59Fe-carrier complexes into infected red cells; type: cell-based, human erythrocytes infected with P. falciparum
Protocol: as §3
Penetration of RSF's into normal and infected red cells was estimated by monitoring uptake of the RSF's-^59 Fe(III) complexes into infected and uninfected cells and compared to DFO. In order to confirm actual uptake of Fe-RSF ileun2 rather than adsorption to the outer membrane, cells were thoroughly washed and lysates were subjected to 80,000g×20 min centrifugation.
The carriers were pre-complexed to ^59 FeCl3 at 4:1 ration in DMSO with 5 μM external FeCl3 (from methanolic stock solutions). The radioactive complexes were then added to 20% hematocrit cell suspensions and flux was measured. […] Cell number was determined from hemoglobin absorption of lysate at 410 nm.

[7] = trophozoites, 40 hours exposure, mean of 3-4 experiments, read-out: IC50 (c)

Uptake kinetics compared with RSF-ileun2 (normal red cells) | IC50 [6, 7] [µM] | Uptake kinetics compared with RSF-ileun2 (infected red cells) | rel. Fe binding (b) ([3]; listed as L-val n1) | Fe-binding affinity relative to DFO ([3]; percent that of DFO) [%] | Pcoeff*Fe binding (a*b) ([3]; listed as L-val of n1 subfamily) | IC50 ([6]; discussion of Table 2, unit inferred, read-out: IC50) [µM] | SMILES | logP [1] | rel. Pcoeff (a) [1] | Hydrophobicity [2] | Relative binding [3] | rel. Fe binding (b) [3] | Pcoeff*Fe binding (a*b) [3] | IC50 [4] [µg/mL] | Extraction efficiency [5] | IC50 ([6]; 40 h, read-out: IC50 (c)) [µM] | Pcoeff of free ligand vs iron(III) complex ([1]; not shown)
 |  |  |  |  |  |  | CCC(COCCC(=O)N[C@@H](C)C(=O)N(C)O)(COCCC(=O)N[C@@H](C)C(=O)N(C)O)COCCC(=O)N[C@@H](C)C(=O)N(C)O [SF1--L--ala] | -0.276 | 0.3 | 1.0 | 108 | 1.25 | 0.37 | 40 (≈ 61.5 µM) | 88 | 62 ± 10 | 
 |  |  |  |  |  |  | CCC(COCCC(=O)N[C@@H](CC(C)C)C(=O)N(C)O)(COCCC(=O)N[C@@H](CC(C)C)C(=O)N(C)O)COCCC(=O)N[C@@H](CC(C)C)C(=O)N(C)O [SF1--L--leu] | 1.1 | 7.4 | 3.5 | 10 | 0.12 | 0.9 | 17 (≈ 21.9 µM) | 35 | 22 ± 4 | similar
 |  |  |  |  |  |  | CCC(COCCC(=O)N1CCC[C@H]1C(=O)N(C)O)(COCCC(=O)N1CCC[C@H]1C(=O)N(C)O)COCCC(=O)N1CCC[C@H]1C(=O)N(C)O [SFI--pro] | -0.187 | 0.4 | 1.5 | 14 | 0.16 | 0.06 | > 100 | 38 | > 100 | 
Identical uptake kinetics | 5 ± 2 | Identical uptake kinetics |  |  |  |  | CCC(COCC(=O)N[C@@H](CC(C)C)C(=O)N(C)O)(COCC(=O)N[C@@H](CC(C)C)C(=O)N(C)O)COCC(=O)N[C@@H](CC(C)C)C(=O)N(C)O [(L--leu) n=1] |  | 17.0 |  |  | 0.23 | 3.86 |  |  |  | 
 |  |  |  |  |  |  | CC[C@@H](C)[C@@H](NC(=O)CCOCC(CC)(COCCC(=O)N[C@@H](C(=O)N(C)O)[C@H](C)CC)COCCC(=O)N[C@@H](C(=O)N(C)O)[C@H](C)CC)C(=O)N(C)O [(D--ileu) n=2] |  | 8.2 |  |  | 0.298 | 2.4 |  |  | 9 ± 3 | 
 |  |  |  |  |  |  | CCC(COCCC(=O)N[C@H](C)C(=O)N(C)O)(COCCC(=O)N[C@H](C)C(=O)N(C)O)COCCC(=O)N[C@H](C)C(=O)N(C)O [SF1--D--ala] | -0.276 | 0.3 | 1.0 | 108 | 1.25 | 0.37 | 45 (≈ 69.2 µM) | 88 | 70 ± 13 | 
 | 3 ± 1 |  |  |  |  |  | CC[C@H](C)[C@H](NC(=O)COCC(CC)(COCC(=O)N[C@H](C(=O)N(C)O)[C@@H](C)CC)COCC(=O)N[C@H](C(=O)N(C)O)[C@@H](C)CC)C(=O)N(C)O [(L--ileu) n=1] |  | 9.0 |  |  | 1.0 | 9.3 |  |  |  | 
 | 6 ± 2 |  |  |  |  |  | CCC(COCCC(=O)N[C@H](C(=O)N(C)O)C(C)C)(COCCC(=O)N[C@H](C(=O)N(C)O)C(C)C)COCCC(=O)N[C@H](C(=O)N(C)O)C(C)C [(L--val) n=2] |  | 2.1 |  |  | 1.31 | 2.8 |  |  |  | 
 | 4 ± 1 |  | 1 | 86 | 1 | 4 | CCC(COCC(=O)N[C@H](C(=O)N(C)O)C(C)C)(COCC(=O)N[C@H](C(=O)N(C)O)C(C)C)COCC(=O)N[C@H](C(=O)N(C)O)C(C)C [(L--val) n=1] |  | 1.0 |  |  | 1.0 | 1.0 |  |  |  | 
